The values that follow come from patent publication US20080076147A1, “BIOFILM SAMPLING DEVICE” (BOARD OF TRUSTEES OF SOUTHERN ILLINOIS UNIVERSITY, priority 2006, published 2008).

Assay [1] deals with Burkholderia cepacia. Put plainly: Biocide kill of planktonic cells and biofilm on vascular catheter (serum flow model). The assay is classed as cell-based. The conditions noted are these: 5 to 60 minutes; for biofilm kill (biocide concentration required to kill 50% of bacteria that grew in the biofilm): biofilm on vascular catheter, FIG. 11B; for planktonic cell kill (biocide concentration required to kill 100% of bacteria present as planktonic cells): planktonic cells on vascular catheter, FIG. 11A. The text has this:
(§1) A system as shown in FIG. 6 was used in this study. Serum and a biocide were placed in sealed bottles as the first fluid source 505 and the second fluid source 509, respectively. The fluid sources were connected to a pump 515 by conventional IV tubing. A second pump 531 was used to deliver the fluid mixture to the vascular catheter 3 positioned in the sampling apparatus 1.
(§2) Initially, only the first fluid source, serum inoculated with Acinetobacter baumanii (10×10^9 CFU/ml), was used to contaminate the catheter with planktonic cells. The inoculated fluid continuously flowed through IV tubing directly through the catheter for […] to form a layer of planktonic cells on the catheter. Fluid flow was then stopped and the tubing was then reconfigured as shown in FIG. 6 so that the second fluid source could be introduced. In these test runs, the first fluid source was inoculated with the same concentration of bacteria, and the second fluid source was a biocide (16-16,000 ppm) selected from hydrogen peroxide (H2O2), sodium hypochlorite (SHC), peracetic acid (PAA) and gluteraldehyde (GLT). The fluid mixture continuously flowed through the catheter for 5, 10, 15, 30, 45 or 60 minutes before fluid flow was discontinued to determine bacterial resistance of the planktonic cells on the catheter. In all, six runs were completed for each of four different biocides. After each run, the test catheter was then cut aseptically into 1 cm segments. The segments were transferred to test tubes containing one ml saline and the adherent cells were dislodged by sonication in an aquasonic device, vortexed for about one minute, and then counted on Tropic soya Agar. The number of viable cells were determined for each catheter and were compared to the number of viable cells in control samples (i.e., biocide-free serum) to calculate the biocide concentration required to kill 50% of the bacteria in the biofilm at the same time interval. Instead of saline, other appropriate buffer solutions can be used. In addition to plating cells on agar and counting the number of colonies, the amount of biofilm formed can be determined by a semiquantitive microtiter plate method. For example, adherent cells can be dislodged from test catheters as described above. The aliquots of solutions containing the cells from each catheter piece can then be added separately to wells of a 96-well tissue culture plate and incubated at 37° C. for 24 h. After several (e.g., three) washes with PBS, any remaining biofilm is stained with safranin O dye for 1 min and washed with PBS again. Optical density at 492 nm is determined with a 96-well plate spectrometer reader. For each time point, an aliquot without biocide is a positive control. Percent inhibition of biofilm accumulation can be determined from the formula (A492positive−A492biocide)/(A492positive−A492)×100%, Such plating methods are well known to one skilled in the art and could be modified as desired for analysis of the biofilm.
(§3) For determination of the bacterial resistance of the biofilm formed on the catheter, the method described above was repeated using the same conditions except that the inoculated fluid continuously flowed through the catheter for two hours before fluid flow was discontinued to form a biofilm on the catheter.
The experiment was repeated as described above, except that Burkholderia cepacia (1×10^9 CFU/ml) was used to inoculate the serum.

Assay [2] deals with Enterococcus faecalis. Described as above. It is filed as cell-based. The conditions noted are these: at 5 minutes of treatment; phase (planktonic or biofilm) not specified, FIGS. 13A-B.
The test system of assay [3] is methicillin resistant Staphylococcus aureus (MRSA). Described as above. The assay is classed as cell-based. The conditions noted are these: biofilm on vascular catheter, 5 to 60 minutes, FIG. 14B.
The test system of assay [4] is Staphylococcus epidermis. The assay is described as above. It is filed as cell-based. The conditions noted are these: 5 to 60 minutes; for biofilm kill (biocide concentration required to kill 50% of bacteria that grew in the biofilm): biofilm on vascular catheter, FIG. 15B; for planktonic cell kill (biocide concentration required to kill 100% of bacteria present as planktonic cells): planktonic cells on vascular catheter, FIG. 15A.
From the text: as §1, §2, §3
The experiment was repeated as described above, except that Staphylococcus epidermis (1×10^9 CFU/ml) was used to inoculate the serum.

In assay [5] the test system is Pseudomonas aeruginosa. The description is as above. The assay is classed as cell-based. The conditions noted are these: 5 to 60 minutes; for biofilm kill (biocide concentration required to kill 50% of bacteria that grew in the biofilm): biofilm on vascular catheter, FIG. 16B; for planktonic cell kill (biocide concentration required to kill 100% of bacteria present as planktonic cells): planktonic cells on vascular catheter, FIG. 16A.
From the text: as §1, §2, §3
The experiment was repeated as described above, except that Pseudomonas aeruginosa (1×10^9 CFU/ml) was used to inoculate the serum.

In assay [6] the test system is Stenotrophomonas maltophilia. Described as above. The conditions noted are these: 5 to 60 minutes; for biofilm kill (biocide concentration required to kill 50% of bacteria that grew in the biofilm): biofilm on vascular catheter, FIG. 17B; for planktonic cell kill (biocide concentration required to kill 100% of bacteria present as planktonic cells): planktonic cells on vascular catheter, FIG. 17A. The assay is classed as cell-based.
From the text: as §1, §2, §3
The experiment was repeated as described above, except that Stenotrophomonas maltophilia (1×10^9 CFU/ml) was used to inoculate the serum.

Assay [7] relates to MRSA. Put plainly: Effect of albumin coating on colonization of MRSA in endotracheal tube model. The assay is classed as cell-based, Staphylococcus aureus. The source says:
A system as shown in FIG. 7 was used in this study. Artificial saliva was placed in a sealed bottle as the second fluid source 609. The first fluid source was provided by an oxygen tank used to saturate the artificial saliva with oxygen. A pump 631 was used to deliver the saliva to an endotracheal tube 3 positioned in the sampling apparatus 1. Each endotracheal tube was pretreated by coating the tube with undiluted bovine serum albumin, except for the untreated tube used as a control.
Initially, only the second fluid source, saliva inoculated with MRSA (1×10^9 CFU/ml), was used to contaminate the endotracheal tube. The inoculated fluid continuously flowed through IV tubing directly through the endotracheal tube for 60 minutes to form a biofilm on the tube. Fluid flow was then stopped and the tubing was then reconfigured as shown in FIG. 7 so that oxygen could be introduced. In these test runs, 100 mg/L mucin was added to the saliva. The fluid mixture continuously flowed through the catheter for 48 hours before fluid flow was discontinued to determine the effect of albumin on the colonization of MRSA on the endotracheal tube. […] The segments were transferred to test tubes containing one ml saline and the adherent cells were dislodges by sonication in an aquasonic device, vortexed for about one minute, and then counted on Tropic soya Agar. […]

The test system of assay [8] is MRSA. The assay can be described thus: Mucin in controlling colonization of MRSA in endotracheal tube model. The assay is classed as cell-based, Staphylococcus aureus. The conditions noted are these: for log10 reduction of colonized MRSA: 48 hours flow, endotracheal tube. The text has this: A system as shown in FIG. 7 was used in this study. Artificial saliva was placed in a sealed bottle as the second fluid source 609. The first fluid source was provided by an oxygen tank used to saturate the artificial saliva with oxygen. A pump 631 was used to deliver the saliva to an endotracheal tube 3 positioned in the sampling apparatus 1.
Initially, only the second fluid source, saliva inoculated with MRSA (1×10^9 CFU/ml), was used to contaminate the endotracheal tube. The inoculated fluid continuously flowed through IV tubing directly through the endotracheal tube for 60 minutes to form a biofilm on the tube. Fluid flow was then stopped and the tubing was then reconfigured as shown in FIG. 7 so that oxygen could be introduced. In these test runs, 100 mg/L mucin was added to the saliva. The fluid mixture continuously flowed through the catheter for 48 hours before fluid flow was discontinued to determine the effect of mucin on the bacterial resistance of the biofilm formed on the endotracheal tube. In all, four runs were completed at 0 mg/L mucin (control), 100 mg/L mucin, 500 mg/L mucin and 1000 mg/L mucin. After each run, the endotracheal tube was cut aseptically into one cm segments. The segments were transferred to test tubes containing one ml saline and the adherent cells were dislodges by sonication in an aquasonic device, vortexed for about one minute, and then counted on Tropic soya Agar.
The results of this study are shown in FIG. 18, which depicts the number of MRSA colony forming units per unit of surface area (CFU/cm^2) on the tube for each mucin concentration. […] The log10 reduction of colonized MRSA was 0.5, 3 (P=0.0001) and 3.5 (P=0.0001) at 100, 500 and 1000 mg/L of mucin, respectively. […] This pathogen plays a significant role in the onset of […] associated pneumonia by causing sustained tracheal colonization.

Take `OO` [hydrogen peroxide]: the “biofilm kill (biocide concentration required to kill 50% of bacteria that grew in the biofilm)” value was “nearly identical effect” in assay [1]; “PAA>GLT>hydrogen peroxide>SHC” in assay [3]; “performed comparably” in assay [4]; “PAA>SHC>GLT>hydrogen peroxide” in assay [5]; “nearly identical effect” in assay [6]. Moreover, the “planktonic cell kill (biocide concentration required to kill 100% of bacteria present as planktonic cells)” value in assay [1] was “SHC, PAA and GLT performed comparably and were more effective than hydrogen peroxide”; in assay [4], “SHC, PAA and GLT performed similarly in planktonic cell kill and outperformed hydrogen peroxide”; in assay [5], “PAA and GLT performed comparably and were more effective than hydrogen peroxide and SHC”; in assay [6], “GLT was somewhat more effective in killing planktonic cells as compared to SHC or PAA and considerably more effective than hydrogen peroxide”. For the same compound, the “effectiveness as compared to the other biocides” value in assay [2] is given as “relatively uneffective”.

Consider `OCl` [SHC, sodium hypochlorite], for which the “biofilm kill (biocide concentration required to kill 50% of bacteria that grew in the biofilm)” value in assay [1] was “nearly identical effect”; in assay [3], “PAA>GLT>hydrogen peroxide>SHC”; in assay [4] it was “performed comparably”; in assay [5] it was “PAA>SHC>GLT>hydrogen peroxide”; in assay [6], “nearly identical effect”. Further, the “planktonic cell kill (biocide concentration required to kill 100% of bacteria present as planktonic cells)” value in assay [1] was “performed comparably and were more effective than hydrogen peroxide”; in assay [4] it was “performed similarly in planktonic cell kill and outperformed hydrogen peroxide”; in assay [5], “PAA and GLT performed comparably and were more effective than hydrogen peroxide and SHC”; in assay [6], “GLT was somewhat more effective in killing planktonic cells as compared to SHC or PAA”.

For the compound bovine serum albumin, the “MRSA colonization of endotracheal tubes (in words)” value in assay [7] (albumin coating of endotracheal tube, FIG. 19) is on record as “increased significantly”. Further, the “log10 increase of colonized cells” value in assay [7] (whole tube coating with albumin, 100 mg/L mucin in saliva, 48 hours flow, versus uncoated tube, P<0.0001) came to 2.4 log10.

Turning to mucin, the “log10 reduction of colonized MRSA” value in assay [8] (100 mg/L of mucin in oxygen-saturated artificial saliva) is recorded as 0.5 log10; in assay [8] (500 mg/L of mucin in oxygen-saturated artificial saliva, P=0.0001), 3 log10; in assay [8] (1000 mg/L of mucin in oxygen-saturated artificial saliva, P=0.0001), 3.5 log10. Moreover, the “colonization of MRSA on endotracheal tubes (in words)” value in assay [8] (mucin 100-1000 mg/L in artificial saliva, in vitro, FIG. 18) was “effective in decreasing the colonization of MRSA on endotracheal tubes”.
